Results: patent US20230398125A1, “TREATING HEPATITIS” (Albireo AB, priority 2022, published 2023)
Read-outs that look alike come from different tables or passages of the source.

Experiments:
[1] = target: T1, Human IBAT (Homo sapiens, UniProt Q12908); assay: 3H-taurocholic acid uptake in human IBAT-overexpressing cells; type: cell-based; details: 3H-taurocholic acid transport
T1 construct: expressed in transfected cells; kept under puromycin selection
T1 sequence (Q12908 1-348): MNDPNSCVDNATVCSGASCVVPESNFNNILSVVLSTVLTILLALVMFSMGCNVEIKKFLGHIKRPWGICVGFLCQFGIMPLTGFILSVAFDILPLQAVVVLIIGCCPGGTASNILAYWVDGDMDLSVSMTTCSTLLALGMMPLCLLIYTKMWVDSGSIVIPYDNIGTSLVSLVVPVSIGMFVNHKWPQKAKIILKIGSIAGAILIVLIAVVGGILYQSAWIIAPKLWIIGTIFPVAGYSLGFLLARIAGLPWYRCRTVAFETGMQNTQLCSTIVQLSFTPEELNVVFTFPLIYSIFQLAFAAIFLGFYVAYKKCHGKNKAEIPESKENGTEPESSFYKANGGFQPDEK
Method: 10,000 cells (Human & Mouse IBAT-overexpressing cells) were seeded in 96-wells plate in 100 μL MEM-alpha medium supplemented with 10% FBS containing puromycin (10 μg/mL) and incubated at 37° C. in 5% CO2 for 48 hrs. After incubation media was decanted from the wells, cells were washed two times with 250 μL of basal MEM-alpha medium (FBS-free). After each wash, plates were tapped against paper towel to ensure maximum removal of residual media. Test inhibitor dilutions (highest test concentration being 10 μM, 3-fold serial dilution, 10 concentrations) prepared in DMSO were added to the incubation mix (maintaining 0.2% final DMSO concentration) containing 0.25 μM ^3H-taurocholic acid and 5 μM of cold taurocholic acid. […]
After incubation, the reaction was stopped by keeping the plates on ice water mix for 2-3 minutes and then the incubation mix was aspirated completely from the wells. […] 100 μL of MicroScint-20 was added to the wells and kept overnight at room temperature before reading the plates in MicroBeta2 liquid Scintillation Counter from PerkinElmer under ^3H Test for I/L-BAT protocol (set at 120 seconds reading time per well, with normal plate orientation).
Percentage inhibitions were calculated with respect to the assay controls. […]

[2] = tested on: HBV genotype C; assay: Serum HBeAg in HBV-infected PXB mice; type: in vivo, hepatitis B virus; details: 10 mg/kg and 30 mg/kg, Day 14
Method: Target volume of blood was collected from all surviving animals under isoflurane anesthesia via the retro-orbital plexus/sinus using Intramedic™ Polyethylene Tubing at each time point. Two microliters (2 μL) from the collected blood were used for human albumin measurements. The remaining blood was centrifuged to separate serum to be used for analyzing the indicated biomarkers. Blood samples were collected according to Table 8.
The individual blood samples of the animals were left at room temperature for at least 5 minutes to coagulate and then centrifuged at 13200×g, 4° C. for 3 minutes to obtain serum. The serum was divided into separate labeled microtubes and stored at −80° C. until analysis.
Serum HBeAg concentration was determined by SRL, Inc. based on a Chemiluminescent Enzyme Immuno Assay (CLEIA) developed by Fujirebio ([…] HBeAg, […]® Prestoll). The dilution factor was 30 and 10, and the measurement range of this assay was between 0.1 and 1590 C.O.I. For the 30-fold diluted samples, the measurement range was adjusted to be between 3 and 47700 C.O.I. And for the 10-fold diluted samples, the measurement range was adjusted to be between 1 and 15900 C.O.I. The lowest quantification limit of this assay was 3.0 C.O.I.

[3] = tested on: Primary Human Hepatocytes; assay: XTT cell toxicity in primary human hepatocytes; type: cell-based
Method: (§1) Multiplicity of Infection (MOI) is defined as the number of HBV genome equivalents, as determined by the qPCR quantitation, added per cell in the respective growth format. The overnight media was removed from the cells and replaced with 190 μL of new, serum-free HI media/4% PEG8000 and 10 μL of the diluted virus stock (HepG2 AD38 genotype D) for a MOI of 500. Medium alone was added to the cells containing compound for the parallel cytotoxicity evaluation. After 18 hours of virus infection, the cells were gently washed five times with DPBS, followed by a new addition of 200 μL HI media containing compounds on day 1, day 4 and day 7 post-infection. In one set of experiments (Study #01), the effect of giving compound 18 h prior to infection, versus 18 h post-infection was studied. The supernatant removed from the cytotoxicity plates at each medium change was stored at −20° C. for shipment to the client. The supernatant was collected at 10 days post infection and stored at −20° C. for total extracellular HBV DNA copy number to be quantitatively determined by qPCR. Cell viability was measured by XTT tetrazolium dye at day 10 for the cytotoxicity plates.
(§2) Following incubation at 37° C. in a 5% CO2 incubator for ten days, the test plates were stained with the tetrazolium dye XTT (2,3-bis(2-methoxy-4-nitro-5-sulfophenyl}-5-[(phenylamino)carbonyl]-2H-tetrazolium hydroxide). XTT-tetrazolium was metabolized by the mitochondrial enzymes of metabolically active cells to a soluble formazan product. XTT solution was prepared daily as a stock of 1 mg/mL in RPMI1640. Phenazine methosulfate (PMS) solution was prepared at 0.15 mg/mL in PBS and stored in the dark at −20° C.
(§3) XTT/PMS stock was prepared immediately before use by adding 40 μL of PMS per mL of XTT solution. Fifty microliters of XTT/PMS were added to each well of the plate and the plate was re-incubated for 4 hours at 37° C. Plates were sealed with adhesive plate sealers and shaken gently or inverted several times to mix the soluble formazan product and the plate was read spectrophotometrically at 450/650 nm with a Molecular Devices Vmax plate reader.
(§4) Each concentration of inhibitor and controls were analyzed in triplicate for HBV DNA copies and for cellular toxicity, respectively. From control wells without inhibitor, the mean of these three replicates was calculated and the HBV DNA mean was set to 100% viral control and the XTT mean was set to 100% cell viability. The effect of compound was then expressed as % of viral control and % cell viability, respectively.

[4] = XTT cell toxicity in primary human hepatocytes; type: cell-based; details: human, primary human hepatocytes, read-out: TC50
Method: as §1, §2, §3, §4

Compound: CCCCC1CN(c2ccccc2)c2cc(SC)c(O/C=C(\F)C(=O)O)cc2S(=O)(=O)N1C (stereo not shown) [Compound 1, (Z)-3-((3-butyl-2-methyl-7-(methylthio)-1,1-dioxido-5-phenyl-2,3,4,5-tetrahydro-1,2,5-benzothiadiazepin-8-yl)oxy)-2-fluoroacrylic acid]
- IC50 [1]: 535 ± 83.3 nM
- serum HBeAg compared to controls [2]: lower
- TC50 ([3]; Study #01, 18 h post-infection section): >1000 nM
- effect on cell viability ([3]; any concentration tested (up to 100 μmol/L)): did not affect cell viability
- CC50 at 10 days ([4]; Study #01, XTT, PHH): > 1000 nM
- CC50 at 10 days ([4]; Study #02): > 200 nM
- CC50 at 10 days ([4]; Study #03): > 50 nM
